In data set [1] the test system is PC-3 human prostate cancer cells. The data set is described as follows: Prostate cancer bone metastasis model (intratibial inoculation, 5-week study, preventive setting). In kind it is in vivo, male athymic nude mice. On the set-up: Fractures / Osteoblastic lesions: unit not given here. The conditions noted are these: for Significance (Fractures) / Significance (Osteoblastic lesions): vs control; for Fractures / Osteoblastic lesions: x-ray, qualitative (yes or no). The source says:
The objective of this study was to test the efficacy of three different doses of the test compound 1 on prostate cancer bone metastases in male athymic nude mice in a 5-week study in preventive setting. The following 5 experimental groups were included in the study:
The vehicle was corn oil. All groups included 15 mice that were 7 weeks of age at the beginning of the study. Based on the body weights the animals were randomized to five groups. On day 0, the animals were given an intratibial inoculation of human prostate cancer cells. Body weights were determined twice a week. The development of osteoblastic and osteolytic lesions were followed by x-ray. The test compound and vehicle were administered by oral gavage twice a day. The animals were sacrificed at day 35. Tissue samples were collected for histology and embedded in paraffin from left and right tibia and femur for possible future histomorphometric analyses. Gross necropsy was performed to all animals at the end of the study, and all macroscopic signs were recorded.
Test compound 1 (99.85%, specific density: 1.005) was obtained in liquid form. Three 50× stock solutions were prepared in corn oil (75 mg/ml, 150 mg/ml and 225 mg/ml) and stored them in dark at +4° C. The dosing solutions of 1.5, 3.0 and 4.5 mg/ml were prepared from the stock solutions by diluting the stock solutions in corn oil 1:50. The dosing solutions were prepared once a week and stored in dark at +4° C. The dosing volume was 10 ml/kg. The test compound was administered by oral gavage twice a day with dosing intervals of 10+14 hours. The dosings were started at day 1 and performed at the same time every day.
Zoledronic acid was used as a reference compound. […] of Zometa® (Novartis Pharma GmbH, Nürnberg, Germany) 4 mg/5 ml infusion concentrate was diluted in 3.9 ml of sterile saline (0.9% NaCl) to obtain the administration concentration of 0.02 mg/ml. This solution was prepared once during the study and stored at +4° C. The dosing volume was 5 ml/kg, resulting in the dose of 0.1 mg/kg. The reference compound was administered SC twice in the study: at days 1 and 14.
Male athymic nude mice (Hsd: Athymic nude-nu, obtained from Harlan, The Netherlands) and PC-3 human prostate cancer cells (ATCC) were used for this study.
In this model, human prostate cancer cells are inoculated into the left proximal tibia of 5-7 week old male athymic nude mice. This mouse strain is immunodeficient, allowing rapid spreading of the human cancer cells. The bone lesions are mixed, being mainly osteolytic but also containing an osteoblastic component. Within four weeks after the inoculation part of the animals have already developed some bone lesions, that can be visualized by X-ray radiography. At 7 weeks, the bone metastases are clearly visible. The animals are sacrificed at 7-8 weeks after inoculation, and their bones are collected for further histomorphometric analysis.
Male athymic nude mice (Hsd: Athymic nude-nu, obtained from Harlan, The Netherlands) were used for this study. The age of the animals was 7 weeks, and their body weights were approximately 18-25 g at the beginning of the study. The mice were specific pathogen free (SPF) and isolator-reared animals. Correct age and good clinical health were qualifications for the study. The minimum quarantine and acclimatization period for the mice was 7 days. Allocation to groups was performed by randomization procedure based on body weight. The animals were marked with tail and ear marks. The mice were housed in Scantainer®, 5 mice per cage. In case of fighting, some of the animals had to be isolated. For intratibial inoculations the mice were anesthetized with i.p. injections of Xylazin (5-6 mg/kg) and Ketamine (92-109 mg/kg). For x-ray imaging the mice were anesthetized with inhalation of isoflurane. […]

Data set [2] deals with MDA-MB-231SA-GFP6 human breast cancer cells. The data set can be described thus: Breast cancer bone metastasis model (intracardiac inoculation, 25-day study, preventive setting). Format: in vivo. An excerpt:
The objective of this study was to test the efficacy of three different doses of the exemplary compound 1 (Antroquinonol) from Example 1 on breast cancer bone metastases in female athymic nude mice in a 25-day study in preventive setting. The following 5 experimental groups were included in the study:
The vehicle was corn oil. All groups included 15 mice that are 5 weeks of age at the beginning of the study. Based on the body weights the animals were randomized to five groups. On day 0, the animals were given intracardiac inoculation of human breast cancer cells. Body weights were determined twice a week. At sacrifice, the osteolytic lesions and whole body tumor burden were quantified by x-ray and fluorescence imaging, respectively. The test compound and vehicle were administered by oral gavage twice a day. Blood samples for analysing TRACP 5b were collected at days 0, 17 and 24. The animals were sacrificed at day 25, or earlier if they became moribund. Tissue samples were collected for histology and embedded in paraffin from left and right tibia and femur for possible future histomorphometric analyses. Gross necropsy was performed to all animals at the end of the study, and all macroscopic signs were recorded.
Test compound 1 (99%, 1005 mg/ml) was obtained in liquid form. Three 50× stock solutions were prepared in corn oil (75 mg/ml, 150 mg/ml and 225 mg/ml) and stored them in dark at +4° C. The dosing solutions of 1.5, 3.0 and 4.5 mg/ml were prepared from the stock solutions by diluting the stock solutions in corn oil 1:50. The dosing solutions were prepared once a week and stored in dark at +4° C. The dosing volume was 10 ml/kg. The test compound was administered by oral gavage twice a day with dosing intervals of 10+14 hours. The dosings were performed at the same time every day.
Zoledronic acid was used as a reference compound. 100 μl of Zometa® (Novartis Pharma GmbH, Nürnberg, Germany) 4 mg/5 ml infusion concentrate was diluted in 3.9 ml of sterile saline (0.9% NaCl) to obtain the administration concentration of 0.02 mg/ml. This solution was prepared once during the study and stored at +4° C. The dosing volume was 5 ml/kg, resulting in the dose of 0.1 mg/kg. The reference compound was administered SC twice in the study: at days 1 and 14.
Female athymic nude mice (Hsd: Athymic nude-nu) were obtained from Harlan Laboratories B.V. (Horst, The Netherlands). MDA-MB-231SA-GFP6 human breast cancer cells were received originally from Prof. Theresa Guise (Indiana University, Indianapolis, Ind., USA) and transfected with pTurboGFP-N vector (Evrogen JSC, Moscow, Russia).
This experiment utilized an animal model that closely resembles the characteristics of breast cancer metastatic disease or condition in humans. This model can be effectively used for testing the effects of cancer drug candidates on the metastasis of breast cancer cells to bone. In this model, human breast cancer cells are inoculated into the left cardiac ventricle of 5 weeks old female athymic nude mice. This mouse strain is immunodeficient, allowing rapid spreading of the human cancer cells. Within two weeks after the inoculation, the animals develop osteolytic bone metastases that can be visualized by X-ray radiography. In addition, soft tissue metastases are observed in approximately 40% of the animals, especially in adrenal glands. At 3 weeks, the bone metastases are clearly visible in X-ray radiographs and the animals have developed cachexia and lost weight substantially. The animals are sacrificed typically at 3-4 weeks after inoculation, and their hindlegs are collected for further histomorphometric analysis.
Female Athymic nude mice (Hsd: Athymic nude-nu, obtained from Harlan, The Netherlands) were used for this study. The age of the animals was 5 weeks, and their body weights were approximately 16-22 g at the beginning of the study. The mice were specific pathogen free (SPF) and isolator-reared animals. […]

The mark [3] stands for this setting: Day 28, 0.1 mg/kg sc days 1 and 14.
[4] abbreviates: Sacrifice, 0.1 mg/kg sc days 1 and 14.

The record followed here is patent publication US8648117B2, “Methods and compositions for treating cancer metastasis” (Golden Biotechnology Corporation, priority 2012, dated 2014).

As to `COC1=C(OC)C(O)C(C/C=C(\C)CC/C=C(\C)CCC=C(C)C)C(C)C1=O` (stereo not drawn) [Compound 1, 4-hydroxy-2,3-dimethoxy-6-methyl-5-(3,7,11-trimethyldodeca-2,6,10-trienyl)cyclohex-2-enone], the “Significance (Fractures)” value is “* (One asterisk (*) indicates a statistical significance with p-value<0.05)” in data set [1] (Day 28, 30 mg/kg/d po); “* (One asterisk (*) indicates a statistical significance with p-value<0.05)” in data set [1] (Day 28, 60 mg/kg/d po); “* (One asterisk (*) indicates a statistical significance with p-value<0.05)” in data set [1] (Sacrifice, 30 mg/kg/d po); “* (One asterisk (*) indicates a statistical significance with p-value<0.05)” in data set [1] (Sacrifice, 60 mg/kg/d po). In addition, the Fractures in data set [1] (Day 28, 30 mg/kg/d po) came to 0.0; in data set [1] (Day 28, 60 mg/kg/d po), 0.0; in data set [1] (Day 28, 90 mg/kg/d po) it was 36.4; in data set [1] (Sacrifice, 30 mg/kg/d po), 21.4; in data set [1] (Sacrifice, 60 mg/kg/d po), 21.4; in data set [1] (Sacrifice, 90 mg/kg/d po) it was 36.4. Moreover, the Osteoblastic lesions in data set [1] (Day 28, 30 mg/kg/d po) is recorded as 0.0; in data set [1] (Day 28, 60 mg/kg/d po) it was 0.0; in data set [1] (Day 28, 90 mg/kg/d po), 9.1; in data set [1] (Sacrifice, 30 mg/kg/d po) it was 35.7; in data set [1] (Sacrifice, 60 mg/kg/d po) it was 21.4; in data set [1] (Sacrifice, 90 mg/kg/d po), 45.5. In addition, the “Significance (Osteoblastic lesions)” value in data set [1] (Sacrifice, 60 mg/kg/d po) is listed as “* (One asterisk (*) indicates a statistical significance with p-value<0.05)”. In data set [1] (all doses), the “osteoclast number at tumor-bone interface” value is “no effect”. The total tumor area result in data set [1] (dose 60 mg/kg/d) is reported as “no effect”. Moreover, in data set [1] (mouse, in vivo, 60 mg/kg/day), the “maximum body weight obtained” value is reported as “increased”. Also, the Cachectic % is 21.4% in data set [2] (30 mg/kg/d po), 16.7% in data set [2] (60 mg/kg/d po) and 20% in data set [2] (90 mg/kg/d po). For the same molecule, the Paraplegic % in data set [2] (30 mg/kg/d po) was 57.1%; in data set [2] (60 mg/kg/d po), 8.3%; in data set [2] (90 mg/kg/d po), 20.0%. Further, the intraosseous tumor area result in data set [2] (higher doses (60 and 90 mg/kg/d)) was “no effect”. Besides, in data set [2] (mouse, in vivo, 90 mg/kg/day), the “body weight at sacrifice” value is reported as “increased”. Further, in data set [2] (mouse, in vivo, 90 mg/kg/day), the “maximum weight obtained during the study” value was “increased”.
Turning to `O=P(O)(O)C(O)(Cn1ccnc1)P(=O)(O)O` [Zoledronic acid, reference compound], in data set [1] (0.1 mg/kg sc days 1 and 14), the body weight result was “no effect”. In data set [1] (setting [3]), the “Significance (Fractures)” value was “* (One asterisk (*) indicates a statistical significance with p-value<0.05)”, the Fractures is 0.0 and the Osteoblastic lesions is 0.0. In addition, in data set [1] (setting [4]), the “Significance (Fractures)” value was “*** (three asterisks (***) a statistical significance with p-value<0.001)”, the “Significance (Osteoblastic lesions)” value is on record as “*** (three asterisks (***) a statistical significance with p-value<0.001)”, the Fractures stood at 0.0 and the Osteoblastic lesions is 0.0. Besides, in data set [2] (0.1 mg/kg sc days 1 and 14), the Cachectic % came to 11.1%, the Paraplegic % stood at 22.2%, the body weight result was “no effect” and the intraosseous tumor area result is reported as “no effect”. The “whole body tumor burden” value in data set [2] (0.1 mg/kg sc days 1 and 14) is reported as “no effect”.
